{"source": "patent US20090298707A1", "about": "“SPARSE MATRIX SYSTEM AND METHOD FOR IDENTIFICATION OF SPECIFIC LIGANDS OR TARGETS” (priority 2008, published 2009)", "key": {"[1]": {"system": "immobilized S. aureus cells", "assay": "Fluorescence microscopy binding of labeled peptides to immobilized bacteria, S. aureus", "set-up": "species or system Staphylococcus aureus", "details": "refined libraries, fluorescence images", "description": "Peptide samples were prepared at a concentration of 25 μM for screening against a variety of organisms by exposing immobilized bacteria to labeled peptides. For bacterial cell binding assays, cells were grown overnight, washed, and immobilized in a polylysine-coated 96-well plate. Fluorescein-labeled peptide samples were applied to immobilized bacteria, incubated for 10 minutes and washed extensively to remove unbound peptide. Samples were visualized by fluorescence microscopy. For each peptide, both brightfield and fluorescence images were collected, and camera and microscope settings were not altered between images. The locations of cells and background regions were determined using the brightfield images; those regions were then selected in the fluorescence images for quantitation of pixel values for determination of relative fluorescence intensities (represented as bacterial fluorescence/background fluorescence) using the GNU Image Manipulation Program (The GIMP, see, e.g., www.gimp.org).\nThe following bacterial species and strains were used: Lactobacillus casei (strain), Escherichia coli (W3110), Enterococcus faecium (strain), Streptococcus mutans (UA140), Streptococcus mitis (ATCC 903), Streptococcus gordonii (NY101), Pseudomonas aeruginosa(strain K), Klebsiella pneumoniae (KAY2026), Myxococcus xanthus (Strains DK1622, wildtype, and difA, exopolysaccharide deficient^21), Micrococcus luteus (strain MS2, a community isolate), Staphylococcus epidermidis (strain), and Staphylococcus aureus(strains, and AM1, a methicillin/oxacillin-resistant community isolate).\nFor isolation of community-acquired S. aureus and M. luteus strains (strains MS2 and AM1), swabs were collected from the nostrils of several volunteers and streaked on Brain-Heart Infusion (BHI) agar and incubated at 37° C. overnight. Yellow colonies were isolated and typed (Microbial ID, Inc., Newark, Del.). Antibiotic resistance was assayed by plating on BHI in the presence of various antibiotics. Commercially available antibiotic susceptibility test disks were used to assay for oxacillin resistance (BD Biosciences), according to the manufacturer's instructions. Due to the difficulty of obtaining methicillin, oxacillin resistance was used as a proxy for methicillin resistance in isolated strains.^22\nThe peptides comprising these two refined libraries were synthesized, labeled, and screened against immobilized S. aureus cells exactly as for the original pilot library.\nTo examine the specificities of the peptides identified in this experiment, a diverse panel of various strains of bacteria was assembled, consisting of Lactobacillus casei, Escherichia coli, Enterococcus faecalis, Streptococcus mutans, Streptococcus mitis, Streptococcus gordonii, Pseudomonas aeruginosa, Klebsiella pneumoniae, Micrococcus luteus (strain MS2), Staphylococcus epidermidis, and two strains of Staphylococcus aureus: a methicillin/oxacillin-sensitive community isolate and our methicillin/oxacillin-resistant community isolate of (strain AM1). Peptides 3C and 4D from the original pilot library were screened for binding against these bacteria by fluorescence microscopy, and images were analyzed as before."}, "[2]": {"details": "per amino acid; cited from earlier work"}, "S. aureus AM1": {"system": "S. aureus AM1", "assay": "Pulldown binding assay, Langmuir isotherm fit, S. aureus", "set-up": "species or system Staphylococcus aureus", "from_the_text": "(§1) To investigate whether the changes in the observed level of binding were due to changes in the affinities or avidities of the refined peptides for cell surfaces, binding curves were generated for selected peptides and fit to the Langmuir isotherm (where possible), the simplest model describing binding to surfaces (peptides showing either complex or nonspecific binding isotherms were excluded from this analysis).\n(§2) Measurements were taken of the absorbance of the labeled peptide at 488 nm (the peak absorbance of the fluorescein label) before and after exposure to the cells. The amount of peptide bound was calculated by comparing the ratio of the final (Af) and initial (Ai) absorbances to the initial concentration (C0)[Cbound=C0(1−(Af/Ai))]. Bacterial surface area per sample was calculated using a stage micrometer to determine the average cell diameter for each species (1.0+/−0.1 μm for S. aureus AM1, 2.7+/−0.1 μm for M. luteus MS2), treating individual cells as discrete spheres. Average cell concentration per unit OD600 was calculated using a hemocytometer.\n(§3) Plots were then generated of the amount of peptide bound per m^2 of bacterial surface area vs. the concentration of unbound peptide at equilibrium. Where possible, the resulting isotherms were fit to the Langmuir isotherm (P/A=(KaNCeq)/(1+KaCeq), where P/A represents the molar amount of peptide bound per unit of bacterial surface area, Ka is the association constant of the peptide with the bacterial surface (L/Mol), N is the maximum surface concentration (mol/m^2), and Ceq is the molar concentration of unbound peptide at equilibrium) (Calis et al. (1995) Pharm Res 12(7): 1072-1076). Data plots and curvefits were obtained using Kaleidagraph (Synergy Software)."}, "M. luteus MS2": {"system": "M. luteus MS2", "assay": "Pulldown binding assay, Langmuir isotherm fit, M. luteus", "set-up": "species or system Micrococcus luteus", "details": "for Langmuir Affinity (Ka): association constant from Langmuir isotherm fit; for Monolayer Concentration (N): maximum surface concentration from Langmuir fit", "from_the_text": "as §1, §2, §3"}}, "data": [{"molecule": "In-plane refinement B4: in-plane refined library peptide, SEQ ID NO:53 (IVKDVIERL; synthetic in-plane refinement library peptide B4)", "values": [{"measurement": "Binding to immobilized S. aureus relative to peptides of the original pilot library", "setting": "[1]", "value": "enhanced binding"}]}, {"molecule": "N[C@@H](Cc1c[nH]c2ccccc12)C(=O)O", "note": "[Trp]", "values": [{"measurement": "Hydrophobicity (Fauchere and Pliska, 1983)", "setting": "[2]", "value": 2.25}]}, {"molecule": "Orthogonal refinement 2A: orthogonal refined library peptide, SEQ ID NO:63 (IVVILSQQN; synthetic orthogonal refinement library peptide A2)", "values": [{"measurement": "Langmuir Affinity (Ka)", "setting": "S. aureus AM1; association constant from Langmuir isotherm fit, fluorescein-labeled peptide 0-100 μM", "value": "13 ± 4", "unit": "M^−1 × 10000"}, {"measurement": "Affinity relative to initial hits / parent peptide of the pilot library", "setting": "S. aureus AM1; in words", "value": "comparable affinity"}, {"measurement": "Nmax relative to pilot library hits", "setting": "S. aureus AM1; in words", "value": "significant increase"}, {"measurement": "Monolayer Concentration (N)", "setting": "S. aureus AM1; maximum surface concentration from Langmuir fit", "value": "0.14 ± 0.01", "unit": "Mol/m^2 × 0.0001"}, {"measurement": "Langmuir Affinity (Ka)", "setting": "M. luteus MS2", "value": "1.6 ± 0.7", "unit": "M^−1 × 10000"}, {"measurement": "KA relative to peptides from the parent library", "setting": "M. luteus MS2; in words", "value": "no significant changes"}, {"measurement": "Nmax relative to peptides from the parent library", "setting": "M. luteus MS2; in words", "value": "no significant changes"}, {"measurement": "Monolayer Concentration (N)", "setting": "M. luteus MS2", "value": "0.5 ± 0.2", "unit": "Mol/m^2 × 0.0001"}]}, {"molecule": "N[C@@H](Cc1c[nH]cn1)C(=O)O", "note": "[His]", "values": [{"measurement": "Hydrophobicity (Fauchere and Pliska, 1983)", "setting": "[2]", "value": 0.13}]}, {"molecule": "CC[C@H](C)[C@H](N)C(=O)O", "note": "[Ile]", "values": [{"measurement": "Hydrophobicity (Fauchere and Pliska, 1983)", "setting": "[2]", "value": 1.8}]}, {"molecule": "NCCCC[C@H](N)C(=O)O", "note": "[Lys]", "values": [{"measurement": "Hydrophobicity (Fauchere and Pliska, 1983)", "setting": "[2]", "value": "−0.99"}]}, {"molecule": "N=C(N)NCCC[C@H](N)C(=O)O", "note": "[Arg]", "values": [{"measurement": "Hydrophobicity (Fauchere and Pliska, 1983)", "setting": "[2]", "value": "−1.01"}]}, {"molecule": "NC(=O)CC[C@H](N)C(=O)O", "note": "[Gln]", "values": [{"measurement": "Hydrophobicity (Fauchere and Pliska, 1983)", "setting": "[2]", "value": "−0.22"}]}, {"molecule": "In-plane refinement C4: in-plane refined library peptide, SEQ ID NO:57 (LVKDVLERV; synthetic in-plane refinement library peptide C4)", "values": [{"measurement": "Binding to immobilized S. aureus relative to peptides of the original pilot library", "setting": "[1]", "value": "enhanced binding"}]}, {"molecule": "Orthogonal refinement 2B: orthogonal refined library peptide, SEQ ID NO:67 (IVVSQQILN; synthetic orthogonal refinement library peptide B2)", "values": [{"measurement": "Langmuir Affinity (Ka)", "setting": "M. luteus MS2", "value": "0.4 ± 0.3", "unit": "M^−1 × 10000"}, {"measurement": "Monolayer Concentration (N)", "setting": "M. luteus MS2", "value": "0.5 ± 0.3", "unit": "Mol/m^2 × 0.0001"}]}, {"molecule": "C[C@@H](O)[C@H](N)C(=O)O", "note": "[Thr]", "values": [{"measurement": "Hydrophobicity (Fauchere and Pliska, 1983)", "setting": "[2]", "value": 0.26}]}, {"molecule": "In-plane refinement C2: in-plane refined library peptide, SEQ ID NO:55 (LVSQVLQNV; synthetic in-plane refinement library peptide C2)", "values": [{"measurement": "Binding to immobilized S. aureus relative to peptides of the original pilot library", "setting": "[1]", "value": "enhanced binding"}]}, {"molecule": "N[C@@H](CCC(=O)O)C(=O)O", "note": "[Glu]", "values": [{"measurement": "Hydrophobicity (Fauchere and Pliska, 1983)", "setting": "[2]", "value": "−0.64"}]}, {"molecule": "In-plane refinement B2: in-plane refined library peptide, SEQ ID NO:51 (IVSQVIQNL; synthetic in-plane refinement library peptide B2)", "values": [{"measurement": "Binding to immobilized S. aureus relative to peptides of the original pilot library", "setting": "[1]", "value": "enhanced binding"}]}, {"molecule": "N[C@@H](Cc1ccccc1)C(=O)O", "note": "[Phe]", "values": [{"measurement": "Hydrophobicity (Fauchere and Pliska, 1983)", "setting": "[2]", "value": 1.79}]}, {"molecule": "O=C(O)[C@@H]1CCCN1", "note": "[Pro]", "values": [{"measurement": "Hydrophobicity (Fauchere and Pliska, 1983)", "setting": "[2]", "value": 0.72}]}, {"molecule": "N[C@@H](Cc1ccc(O)cc1)C(=O)O", "note": "[Tyr]", "values": [{"measurement": "Hydrophobicity (Fauchere and Pliska, 1983)", "setting": "[2]", "value": 0.96}]}, {"molecule": "N[C@@H](CC(=O)O)C(=O)O", "note": "[Asp]", "values": [{"measurement": "Hydrophobicity (Fauchere and Pliska, 1983)", "setting": "[2]", "value": "−0.77"}]}, {"molecule": "CSCC[C@H](N)C(=O)O", "note": "[Met]", "values": [{"measurement": "Hydrophobicity (Fauchere and Pliska, 1983)", "setting": "[2]", "value": 1.23}]}, {"molecule": "In-plane refinement C1: in-plane refined library peptide, SEQ ID NO:54 (LVSYVLTQV; synthetic in-plane refinement library peptide C1)", "values": [{"measurement": "Binding to immobilized S. aureus relative to peptides of the original pilot library", "setting": "[1]", "value": "enhanced binding"}]}, {"molecule": "C[C@H](N)C(=O)O", "note": "[Ala]", "values": [{"measurement": "Hydrophobicity (Fauchere and Pliska, 1983)", "setting": "[2]", "value": 0.31}]}, {"molecule": "NC(=O)C[C@H](N)C(=O)O", "note": "[Asn]", "values": [{"measurement": "Hydrophobicity (Fauchere and Pliska, 1983)", "setting": "[2]", "value": "−0.6"}]}, {"molecule": "NCC(=O)O", "note": "[Gly]", "values": [{"measurement": "Hydrophobicity (Fauchere and Pliska, 1983)", "setting": "[2]", "value": 0}]}, {"molecule": "CC(C)C[C@H](N)C(=O)O", "note": "[Leu]", "values": [{"measurement": "Hydrophobicity (Fauchere and Pliska, 1983)", "setting": "[2]", "value": 1.7}]}, {"molecule": "CC(C)[C@H](N)C(=O)O", "note": "[Val]", "values": [{"measurement": "Hydrophobicity (Fauchere and Pliska, 1983)", "setting": "[2]", "value": 1.22}]}]}
